# Compound: N#CC1(c2ccc(NC(=O)c3cccnc3NCc3ccncc3)cc2)CCCC1 [Apatinib] + CCNC(=O)c1noc(-c2cc(C(C)C)c(O)cc2O)c1-c1ccc(CN2CCOCC2)cc1 [Luminespib] (partner 0.01 µM)
# Experiment: relative viability (nuclei count vs DMSO), 5 days (fraction); higher = more cells survive
# Details: first compound 0.08 µM
# In short: (§1)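 One day after seeding in 1536-well plates, lung cancer cell lines were dosed by pin tool. Dosing was either single-drug or a fixed anchor-drug dose plus five library-drug doses (not always all listed) in √10 steps. After 5 days, nuclei were stained in one fix-and-stain step and counted on 4× images, and relative viability is the nuclei count of treated wells over that of vehicle wells, given as the median of duplicate plates.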
row,Cell Line,relative viability
1,PC-3 [JPC-3],0.712
2,PC-14,0.121
3,RERF-LC-KJ,1.11
4,SK-LU-1,0.196
5,SK-MES-1,0.732
6,SW 1573,0.318
7,UMC-11,1.13

# Same assay, conditions: first compound 0.253 µM
row,Cell Line,relative viability
1,PC-3 [JPC-3],0.701
2,PC-14,0.15
3,RERF-LC-KJ,1.35
4,SK-LU-1,0.201
5,SK-MES-1,0.796
6,SW 1573,0.184
7,UMC-11,1.02

# Same assay, conditions: first compound 0.8 µM
row,Cell Line,relative viability
1,PC-3 [JPC-3],0.711
2,RERF-LC-KJ,1.07
3,SK-LU-1,0.202
4,SK-MES-1,0.701
5,SW 1573,0.183
6,UMC-11,0.926

# Same assay, conditions: first compound 2.53 µM
row,Cell Line,relative viability
1,PC-3 [JPC-3],0.622
2,PC-14,0.167
3,RERF-LC-KJ,1.22
4,SK-LU-1,0.182
5,SK-MES-1,0.727
6,SW 1573,0.162
7,UMC-11,1.04

# Same assay, conditions: first compound 8 µM
row,Cell Line,relative viability
1,PC-3 [JPC-3],0.485
2,PC-14,0.144
3,RERF-LC-KJ,1.02
4,SK-LU-1,0.186
5,SK-MES-1,0.795
6,SW 1573,0.195
7,UMC-11,0.886

# Compound: CN(C)C(=N)NC(=N)N [Metformin] + Cc1nc(NC(=O)N2CCC[C@H]2C(N)=O)sc1-c1ccnc(C(C)(C)C(F)(F)F)c1 [Alpelisib] (partner 2 µM)
# Experiment: as above
# Details: first compound 10 µM
# In short: as §1
row,Cell Line,relative viability
1,PC-3 [JPC-3],0.92
2,PC-14,0.829
3,RERF-LC-KJ,0.702
4,SK-LU-1,0.916
5,SK-MES-1,0.814
6,SW 1573,0.853
7,UMC-11,1.06

# Same assay, conditions: first compound 31.62 µM
row,Cell Line,relative viability
1,PC-3 [JPC-3],0.971
2,PC-14,0.886
3,RERF-LC-KJ,0.746
4,SK-LU-1,0.934
5,SK-MES-1,0.802
6,SW 1573,0.82
7,UMC-11,0.992

# Same assay, conditions: first compound 100 µM
row,Cell Line,relative viability
1,PC-3 [JPC-3],1.03
2,PC-14,0.873
3,RERF-LC-KJ,0.788
4,SK-LU-1,0.829
5,SK-MES-1,0.732
6,SW 1573,0.795
7,UMC-11,1.03

# Same assay, conditions: first compound 316.23 µM
row,Cell Line,relative viability
1,PC-3 [JPC-3],0.949
2,PC-14,0.975
3,RERF-LC-KJ,0.619
4,SK-LU-1,0.948
5,SK-MES-1,0.822
6,SW 1573,0.8
7,UMC-11,0.988

# Same assay, conditions: first compound 1000 µM
row,Cell Line,relative viability
1,PC-3 [JPC-3],0.965
2,PC-14,0.893
3,RERF-LC-KJ,0.735
4,SK-LU-1,1.07
5,SK-MES-1,0.909
6,SW 1573,0.797
7,UMC-11,0.971

# Compound: N#CC1(c2ccc(NC(=O)c3cccnc3NCc3ccncc3)cc2)CCCC1 [Apatinib] + C[C@]1(O)C[C@@H](c2nc(-c3ccc4ccc(-c5ccccc5)nc4c3)c3c(N)nccn32)C1 [Linsitinib] (partner 1 µM)
# Experiment: as above
# Details: first compound 0.08 µM
# In short: as §1
row,Cell Line,relative viability
1,PC-3 [JPC-3],0.98
2,PC-14,0.988
3,RERF-LC-KJ,0.908
4,SK-LU-1,1.1
5,SK-MES-1,1.13
6,SW 1573,0.898
7,UMC-11,0.999

# Same assay, conditions: first compound 0.253 µM
row,Cell Line,relative viability
1,PC-3 [JPC-3],0.961
2,PC-14,1.03
3,RERF-LC-KJ,0.908
4,SK-LU-1,1.3
5,SK-MES-1,0.975
6,SW 1573,0.784
7,UMC-11,1.01

# Same assay, conditions: first compound 0.8 µM
row,Cell Line,relative viability
1,PC-3 [JPC-3],0.885
2,PC-14,0.86
3,RERF-LC-KJ,0.821
4,SK-LU-1,1.04
5,SK-MES-1,1.1
6,SW 1573,0.979
7,UMC-11,0.979

# Same assay, conditions: first compound 2.53 µM
row,Cell Line,relative viability
1,PC-3 [JPC-3],0.797
2,PC-14,0.95
3,RERF-LC-KJ,0.845
4,SK-LU-1,0.809
5,SK-MES-1,1.07
6,SW 1573,0.885
7,UMC-11,0.911

# Same assay, conditions: first compound 8 µM
row,Cell Line,relative viability
1,PC-3 [JPC-3],0.894
2,PC-14,1.02
3,RERF-LC-KJ,0.757
4,SK-LU-1,0.787
5,SK-MES-1,0.942
6,SW 1573,0.854
7,UMC-11,0.93

# Compound: N#CC1(c2ccc(NC(=O)c3cccnc3NCc3ccncc3)cc2)CCCC1 [Apatinib] + CC(=O)Nc1cccc(-n2c(=O)n(C3CC3)c(=O)c3c(Nc4ccc(I)cc4F)n(C)c(=O)c(C)c32)c1 [Trametinib] (partner 0.02 µM)
# Experiment: as above
# Details: first compound 0.08 µM
# In short: as §1
row,Cell Line,relative viability
1,PC-14,0.754
2,RERF-LC-KJ,0.89
3,SK-LU-1,0.498
4,SK-MES-1,0.585
5,SW 1573,0.554
6,UMC-11,0.816

# Same assay, conditions: first compound 0.253 µM
row,Cell Line,relative viability
1,PC-3 [JPC-3],0.786
2,PC-14,0.897
3,RERF-LC-KJ,0.849
4,SK-LU-1,0.541
5,SK-MES-1,0.642
6,SW 1573,0.729
7,UMC-11,0.686

# Same assay, conditions: first compound 0.8 µM
row,Cell Line,relative viability
1,PC-3 [JPC-3],0.553
2,PC-14,0.563
3,RERF-LC-KJ,0.891
4,SK-LU-1,0.545
5,SK-MES-1,0.567
6,SW 1573,0.543
7,UMC-11,0.631

# Same assay, conditions: first compound 2.53 µM
row,Cell Line,relative viability
1,PC-3 [JPC-3],0.646
2,PC-14,0.636
3,RERF-LC-KJ,0.758
4,SK-LU-1,0.495
5,SK-MES-1,0.64
6,SW 1573,0.603
7,UMC-11,0.668

# Same assay, conditions: first compound 8 µM
row,Cell Line,relative viability
1,PC-3 [JPC-3],0.654
2,PC-14,0.388
3,RERF-LC-KJ,0.711
4,SK-LU-1,0.446
5,SK-MES-1,0.514
6,SW 1573,0.352
7,UMC-11,0.647

# Reference: the supplement of paper PMC10307832
